Like-named read-outs stand apart in the source and are kept apart here.

The values below come from patent EP0937779A2, “Cell damage marker” (ORIENTAL YEAST CO., LTD., priority 1998, dated 1999).

Common to all, as to format: biochemical
One experiment concerns the target type-B isozyme (Homo sapiens, UniProt P18669). As to the kind of experiment: Inhibition experiment over purified PGAM isozymes, type-B. As to conditions: tetrathionic acid used as the PGAM inhibitor. An excerpt: (§1) The method for assaying PGAM in accordance with the invention will now be described about the case of the type-B isozyme. The method for assaying the type-B isozyme comprises treating a sample with a PGAM inhibitor to inactivate specific isozymes and assaying the remaining PGAM activity. […] By adding tetrathionic acid to serum to inactivate the type-M isozyme and subsequently assaying the residual PGAM activity, therefore, the type-B isozyme can be assayed separately.
(§2) At an inhibition experiment over purified PGAM isozymes, only 50 % of the type-MB isozyme is inactivated through the treatment with tetrathionic acid, so 50 % of the activity remains. Because the PGAM activity in normal serum and brain tissue is nearly totally derived from the type-B isozyme in a practical sense, the residual activity of the type-MB isozyme is negligible in biological samples.

The target in a further experiment is type-M isozyme (Homo sapiens, UniProt P15259). As to the kind of experiment: Inhibition experiment over purified PGAM isozymes, type-M. As to conditions: tetrathionic acid used as the PGAM inhibitor.
Text: as §1, §2

Another experiment has as its target type-MB isozyme (Homo sapiens, UniProt P15259). As to the kind of experiment: Inhibition experiment over purified PGAM isozymes, type-MB. As to conditions: treatment with tetrathionic acid.
Text: as §1, §2

For experiment [1], the target named is PGAM-M standard (based on pooled sera) (Homo sapiens, UniProt P15259). Briefly: Effect of potassium tetrathionate on PGAM-M, automatic analysis method (NADH reduction rate assay). The method, then:
(§3) The reagent 1 (R-1; 250 µl) was mixed with a culture medium sample (5 µl), and the resulting mixture was then left to stand for 5 minutes. By subsequently using the reagent 2 (R-2), the PGAM activity was assayed.
(§4) Because the reagent 2 (R-2) contained glycerate-3-P (substrate), the reaction was initiated by adding 41 µl of the reagent 2. About 1.5 minutes after the addition of the reagent 2, the assay was started.
(§5) By using an automatic analyzer of Hitachi 7150 and by presetting the assay code to RATE-A: 32-39 and the assay temperature to 37 °C, the decrease of absorbance A at 340 nm was determined on the basis of the reduction of NADH for about 1.5 minutes. Additionally, a sub-wave length was set at 405 nm for the determination. Furthermore, the value of a conventionally known cell damage marker LDH (lactate dehydrogenase) is shown concurrently.
(§6) Prior to the assay of B-PGAM in the cell culture medium, the effect of potassium tetrathionate on PGAM-B and PGAM-M was examined by the automatic analysis method. As the sample, a type-B standard and a type-M standard (both based on pooled sera) were used. These standards were diluted with physiological saline to prepare 1/1 to 1/8 samples. Various concentrations of potassium tetrathionate were added to these samples for 5-min reaction, and subsequently, the amounts of the type-B and type-M PGAMs were determined by utilizing the automatic analysis method.
(§7) By using the reagents of Example 2, the amounts of PGAM-B and PGAM-M were individually determined by the automatic analysis method, and the results are shown below in Table 4. […]

Experiment [2] has as its target PGAM-B standard (based on pooled sera) (Homo sapiens, UniProt P18669). Briefly: Effect of potassium tetrathionate on PGAM-B, automatic analysis method (NADH reduction rate assay). The following applies: for remaining activity at 1900 µM: final potassium tetrathionate concentration 1.9 mM; for remaining activity at 1900 µM / remaining activity at 3800 µM / remaining activity at 7600 µM: 5-min reaction, read-out: Effect of potassium tetrathionate over PGAM-B (residual activity, 0 mM = 100); for remaining activity at 3800 µM: final potassium tetrathionate concentration 3.8 mM; for remaining activity at 7600 µM: final potassium tetrathionate concentration 7.6 mM. On the procedure: as §3, §4, §5, §6, §7

[3] abbreviates: dilution ratio 1/1, 0 mM = 100 (183U/L).
The mark [4] stands for this setting: dilution ratio 1/2, 0 mM = 100 (91U/L).
The mark [5] stands for this setting: dilution ratio 1/4, 0 mM = 100 (46U/L).
Where [6] appears, read: dilution ratio 1/8, 0 mM = 100 (22U/L).

Chain of PGAM-B standard (based on pooled sera) (P18669 whole entry): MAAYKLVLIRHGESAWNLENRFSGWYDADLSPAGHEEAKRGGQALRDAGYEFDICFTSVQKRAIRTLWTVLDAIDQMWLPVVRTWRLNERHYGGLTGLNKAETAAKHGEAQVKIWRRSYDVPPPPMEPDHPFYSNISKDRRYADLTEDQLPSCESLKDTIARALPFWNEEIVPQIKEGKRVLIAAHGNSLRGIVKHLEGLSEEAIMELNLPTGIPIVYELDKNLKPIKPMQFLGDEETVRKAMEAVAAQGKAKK
Chain of PGAM-M standard (based on pooled sera) (P15259 whole entry): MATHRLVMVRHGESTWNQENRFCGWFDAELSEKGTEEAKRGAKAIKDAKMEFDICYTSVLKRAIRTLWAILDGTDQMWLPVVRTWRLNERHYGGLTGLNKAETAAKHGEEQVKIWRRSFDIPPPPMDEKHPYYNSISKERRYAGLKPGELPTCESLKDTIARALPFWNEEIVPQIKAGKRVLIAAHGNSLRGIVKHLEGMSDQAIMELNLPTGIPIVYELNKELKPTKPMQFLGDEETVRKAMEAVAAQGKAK
Chain of type-B isozyme (P18669 whole entry): as the sequence (P18669 whole entry) above
Chain of type-MB isozyme (P15259 whole entry): as the sequence (P15259 whole entry) above
Chain of type-MB isozyme (P18669 whole entry, further chain): as the sequence (P18669 whole entry) above
Chain of type-M isozyme (P15259 whole entry): as the sequence (P15259 whole entry) above

Regarding `O=S(=O)(O)SSS(=O)(=O)O` [tetrathionic acid], the “type-B isozyme inactivated (in words)” value at type-B isozyme was “hardly inactivated”. This compound also registered a type-M isozyme inactivated on type-M isozyme of approximately 100%. Further, on type-MB isozyme, the “activity of the type-MB isozyme that remains” value was found to be 50%.

As to `O=S(=O)([O-])SSS(=O)(=O)[O-].[K+].[K+]` [potassium tetrathionate], the remaining activity at 1900 µM worked out at 0% in experiment [1] (final potassium tetrathionate concentration 1.9 mM, dilution ratio 1/1, 5-min reaction, 0 mM = 100 (2727U/L), read-out: Effect of potassium tetrathionate over PGAM-M (residual activity, 0 mM = 100)); 98% in experiment [2] (setting [3]); 98% in experiment [2] (setting [4]); 97% in experiment [2] (setting [5]); 93% in experiment [2] (setting [6]). The remaining activity at 3800 µM in experiment [1] (final potassium tetrathionate concentration 3.8 mM, dilution ratio 1/1, 5-min reaction, 0 mM = 100 (2727U/L), read-out: Effect of potassium tetrathionate over PGAM-M (residual activity, 0 mM = 100)) was determined as 0%; in experiment [2] (setting [3]), 92%; in experiment [2] (setting [4]), 91%; in experiment [2] (setting [5]), 86%; in experiment [2] (setting [6]), 93%. Also, the remaining activity at 7600 µM stood at 0% in experiment [1] (final potassium tetrathionate concentration 7.6 mM, dilution ratio 1/1, 5-min reaction, 0 mM = 100 (2727U/L), read-out: Effect of potassium tetrathionate over PGAM-M (residual activity, 0 mM = 100)); 81% in experiment [2] (setting [3]); 80% in experiment [2] (setting [4]); 59% in experiment [2] (setting [5]); 75% in experiment [2] (setting [6]). Moreover, the “type-M isozyme inactivated with potassium tetrathionate (summary in words)” value in experiment [1] (summary of Table 4) is listed as “specifically inactivated”. In experiment [2] (summary of Table 4), the “type-B isozyme influenced by potassium tetrathionate (summary in words)” value was “absolutely never influenced”.
